Reference: US20120029054A1, “RNA Interference Mediated Inhibition of GATA Binding Protein 3 (GATA3) Gene Expression Using Short Intefering Nucleic Acid (siNA)” (Merck Sharp & Dohme Corp., priority 2009, published 2012)
[invAb] = inverted abasic unit; m = 2'-O-methyl; r = 2'-OH (RNA); f = 2'-fluoro

Experiments:
[1] = test system: GATA3 mRNA; test: GATA3 mRNA knock-down (Taqman qRT-PCR) after RNAiMax transfection of mouse RAG cells; assay type: cell-based; details: 10 nM siNA, 24 hrs, average of 2 experiments
Procedure, shortened: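 Murine RAG cells, 5000/well, transfected 24 h after plating with siNA (10 nM final) complexed with RNAiMax, harvested after 24 h. GATA3 mRNA quantified by TaqMan qRT-PCR with GAPDH reference; % knock-down by comparative Ct (2^−ΔΔCt) versus non-targeting control siNA.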

[2] = test system: GATA3 mRNA; test: GATA3 mRNA knock-down (Taqman qRT-PCR) after RNAiMax transfection of human MCF7 cells; screen and IC50 dose response; assay type: cell-based; details: 10 nM siNA, MCF7 cells, 24 hrs
Procedure, shortened: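 MCF7 cells (5000/well, 24 h) transfected with siNA–RNAiMax complexes at 10 nM final siNA for 24 h without media change. GATA3 mRNA measured by TaqMan qRT-PCR, alongside β-actin and GAPDH probes. % knock-down by comparative Ct (2^−ΔΔCt) relative to non-targeting control siNA.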

Substance | % KD Mouse [1] [%] | % KD Human ([2]; average of 3 experiments) [%] | % KD Human ([2]; * Hs00231122_m1 Taqman Assay) | % KD Human ([2]; ** Hs00922328_m1 Taqman Assay)
30284-DC: GATA3 siNA duplex, human/mouse site 2155: sense B uGcuGAAcAuuGcAuAuAA TTB (SEQ 121), antisense UUAuAuGcAAuGuucAGcAUU (SEQ 122) (sense UGCUGAACAUUGCAUAUAATT; antisense UUAUAUGCAAUGUUCAGCAUU; sense: DNA at AGT, 2'-fluoro at CU, [invAb] at 5' end, 3' end, backbone not given here; antisense: sugars from the 5' end rrrfmfmfmmfmfffmmfrmm, backbone not given here) | 65 ± 0 | 46 ± 5 | – | –
30285-DC: GATA3 siNA duplex, human/mouse site 2129: sense B GGucucuAGuGcuGuGAAA TTB (SEQ 123), antisense UUUcAcAGcAcuAGAGAccUU (SEQ 124) (sense GGUCUCUAGUGCUGUGAAATT; antisense UUUCACAGCACUAGAGACCUU; sense: DNA at AGT, 2'-fluoro at CU, [invAb] at 5' end, 3' end, backbone not given here; antisense: sugars from the 5' end rrrfmfmmfmffmmmmmffmm, backbone not given here) | 69 ± 1 | – | 49 ± 11* % | 52 ± 10** %
30286-DC: GATA3 siNA duplex, human/mouse site 1956: sense B GcAGGAGcAGuAucAuGAA TTB (SEQ 125), antisense UUCAuGAuAcuGcuccuGcUU (SEQ 126) (sense GCAGGAGCAGUAUCAUGAATT; antisense UUCAUGAUACUGCUCCUGCUU; sense: DNA at AGT, 2'-fluoro at CU, [invAb] at 5' end, 3' end, backbone not given here; antisense: sugars from the 5' end rrrmfmmfmffmfffffmfmm, backbone not given here) | 66 ± 0 | – | 45 ± 3* % | 40 ± 16** %
